Consider 89 molecules from a melting point compilation (Tetko et al.; mined from patent text by program, amines drawn as free bases though some values may be those of a salt).

Each structure is given as a SMILES string. Some results are limits rather than exact numbers.

`CN(C)N=Nc1cc(-c2ccccc2)sc1C(=O)O`: the melting point fell in the range of 162 to 166 °C. `O=C1N(CCCC2CC2)c2ccccc2C12COc1cc3c(cc12)OCO3` (centres undefined) came in with a melting point of 111 to 113 °C. Turning to `CN(Cc1ccccc1)C(=O)Cn1nc(-c2ccccc2O)nc1-c1ccccc1O`, the melting point fell in the range of 179 to 180 °C.

`CC(C)n1nc(C#Cc2ccccc2)ccc1=O`: the melting point was 75.5 to 77 °C. Regarding `Cc1ccc(-c2ccc(O)cc2)c(-c2ccc(OCCN3CCCCC3)cc2)n1`, the melting point fell in the range of 90 to 100 °C. Consider `CC1=CC2=C(N3CN(n4cc(C)nc4-c4cc(Cl)ccc4Cl)C=C3N=N2)N(c2cc(Cl)ccc2Cl)C1`, for which the melting point was determined as 130 °C. In turn, `CCOP(=O)(/C=C/c1cn(-c2ccccc2)nc1OCc1ccc(OCc2nc(-c3cccc(C(=O)OC)c3)oc2C)c(OC)c1)OCC` gave a melting point of 112 to 113 °C. As to `CC(=O)n1c(=NC(F)(F)F)oc2ccccc21`, the melting point lay in the range of 140 to 143 °C. The figure for `Cc1cccc2[nH]c(-c3ccccc3F)nc12` is 161 to 162 °C; for `O=S(=O)(c1ccc(O)cc1)c1ccc2cc(Br)ccc2c1` it is 178 to 180 °C.

For the molecule `Cc1c(CC(=O)O)c2cc(OCc3ccc4ccccc4n3)ccc2n1Cc1ccc(C(=O)O)cc1`, the melting point is 232 to 234 °C.

The molecule `Brc1ccc2c(c1)C(c1ccccn1)=NCc1nncn1-2` yielded a melting point of 252 to 255 °C. In turn, `Nc1c(-c2ccc(Cl)cc2)sc2ccccc12` gave a melting point of 152 to 154 °C. In turn, `CC(C)(C)OC(=O)N(Cc1ncccc1C(N)=NO)C(=O)OC(C)(C)C` gave a melting point of 178 to 180 °C. With `O=C(SCCC(=O)N1C(c2cccs2)SC[C@H]1C(=O)O)c1ccccc1` (some centres undefined), the melting point was 141 to 143 °C. The figure for `CCOC(=O)Nc1cc(OCC)c(Br)cc1F` is 92.5 to 95 °C; for `COc1nc(NC(=O)NS(=O)(=O)c2sccc2C(F)=C(F)C(F)(F)F)nc(OC)n1` it is 149 to 153 °C. Consider `COc1ccc(CNc2nnc(-n3ccnc3)c3ccc(Cl)cc23)cc1Cl`, for which the melting point is 221 to 222 °C. The figure for `COc1cccc2c(Oc3cc(-n4c(=O)cc(C(F)(F)F)n(C)c4=O)c(F)cc3C#N)cccc12` is 109 °C. Regarding `Cc1ccc(CNC(=O)C2=C3N(CCC2=O)c2ccccc2N3CCN(C)C)cc1`, the melting point lay within 120 to 122 °C. With `CC(C)C1CC(=O)C(c2ccccn2)C(=O)C1` (centres undefined), the melting point is 110 to 112 °C. Turning to `O=C1Cc2cc(NC(=O)C(=O)N3CCC(Cc4ccc(Cl)cc4)CC3)ccc2N1`, the melting point is 195 °C. `O=C(c1ccccc1)c1cc2c([N+](=O)[O-])c(O)c(O)cc2oc1=O` displayed a melting point of 94 to 96 °C. Consider `CCCCCC(O)C1C(=O)NC(C(=O)SCC(=O)OC)(C(O)C2C=CCCC2)C1(C)O` (centres undefined), for which the melting point was determined as 75 °C. In the case of `C#Cc1c(C#N)nn(-c2c(Cl)cc(C(F)(F)F)cc2Cl)c1Br`, the melting point is 134 to 135 °C. In the case of `O=C(O)COC1c2ccccc2COc2ccc(/C=C/c3ccc4cc(F)c(F)cc4n3)cc21` (centres undefined), the melting point fell in the range of 206 to 208 °C. Molecule `O=C1c2c(O)ccc(O)c2C(=O)c2c(NCCN3CCC(O)CC3)ccc(NCCN3CCC(O)CC3)c21` gave a melting point of 241 to 244 °C. In the case of `COc1c(Cl)cc(C(C)(C)N(CC(C)=O)C(=O)Cc2ccccc2)cc1Cl`, the melting point is 126 to 127 °C.

Turning to `CC(C)(C)OC(=O)NCC(=O)Nn1cccc1C(=O)c1ccccc1Cl`, the melting point is 156 to 158 °C.

In turn, `Cc1cc(F)ccc1-c1nc(OCCCS(C)(=O)=O)nc2c1ccc(=O)n2-c1c(F)cccc1F` yielded a melting point of 160 to 162 °C.

On to `C=CCN1CCC23c4c5ccc(O)c4OC2C(C)C(=NO)CC3(O)C1C5` (centres undefined), for which the melting point fell in the range of 128 to 129 °C. `O=[N+]([O-])c1ccc2c(c1)NP(=O)(N(CCCl)CCCl)NC2` (centres undefined) had a melting point of 168 to 170 °C. For the molecule `O=C1c2cccc(Br)c2C(=O)N1c1ccc(OC(F)(F)F)cc1`, the melting point is 117 to 118 °C. In turn, `CCCC(=O)SCC(Cc1ccccc1)C(=O)Nc1cccc(C(=O)O)c1C` (centres undefined) yielded a melting point of 136 to 141 °C. As to `O=C(O)c1[nH]c2cc(Cl)cc(Cl)c2c1C=C1CON(c2ccccc2)C1=O`, the melting point is over 250 °C.

Molecule `COC(=O)c1ccccc1S(=O)(=O)NC(=O)Nc1nc(COc2ccccc2)cc(OC)n1` yielded a melting point of 178 to 180 °C.

In turn, `CS(=O)(=O)c1ccc(-c2nc(C(F)(F)F)nc(Cl)c2-c2ccc(F)cc2)cc1` came in with a melting point of 195 to 197 °C.

As to `Cn1cc(O)c(=O)c2ccccc21`, the melting point is 235 to 240 °C. In turn, `Cc1c(Cl)cc(C2=NNC(=O)C(S)C2)cc1Cl` (centres undefined) had a melting point of 184 to 187 °C.

With `CCn1cc(C(=O)NCCc2ccccc2)c(=O)c2cnc(N3CCCC3)nc21`, the melting point fell in the range of 178 to 180 °C. For `CS(=O)(=O)Nc1cc([C@@H](O)CNC2CCN(c3ccc(S(=O)(=O)N(CC(=O)O)CC(=O)O)cc3)CC2)ccc1O`, the melting point was in the range of 163 to 166 °C. On to `COc1cn(-c2ccc(C3CC3)cc2F)nc(-c2ccnn2-c2ccccc2)c1=O`, for which the melting point fell in the range of 140 to 142 °C. In turn, `O=C(NCCCCCCNC(=O)c1ccc(OC(F)(F)F)cc1)c1ccc(OC(F)(F)F)cc1` showed a melting point of 179 to 180 °C.

`COc1ccccc(Br)c1=O` registered a melting point of 74 to 75 °C. Molecule `CCCCCCCCCCCCn1nnc(NC2CCCCC2)n1` had a melting point of 51 to 53 °C. Turning to `O=C1Nc2ccc(Br)cc2C2(CCCCC2)O1`, the melting point lay within 208 to 210 °C. The figure for `CCOC(=O)Oc1cc(C(C)(C)C)oc(=O)c1-c1c(C)cc(C)cc1C` is 92 to 94 °C; for `CC(COc1ccccc1)NC(=Nc1cccnc1)NC#N` (centres undefined) it is 130 to 133 °C; for `CSCC(=O)[C@H](Cc1ccc(Cl)cc1)NC(=O)[C@H](CC(C)C)NC(=O)OCc1ccccc1` it is 119 to 121 °C. For the molecule `CCOC(=O)Cn1ncc2c(Br)c(OC)ccc21`, the melting point is 106 to 107 °C. On to `CN(C)c1cccc2c(S(=O)(=O)Nc3ncc(Br)nc3Br)cccc12`, for which the melting point was found to be 178 °C. In turn, `OCCN1CCC(=C2c3ccccc3Oc3ccc(Br)cc32)CC1` returned a melting point of 142 to 146 °C. `CN1C2CCC1CC(c1n[nH]c3cc(F)ccc13)C2` (centres undefined) gave a melting point of 235 to 236 °C. For `COP(=O)(Cc1ccc(NC(=O)/C=C/c2cnn(C)c2-c2ccoc2)cc1)OC`, the melting point was 176 to 177 °C. The molecule `COc1ccccc1OC(CCN)c1ccccc1` (centres undefined) gave a melting point of 118 to 121 °C. To `CCN(C#N)C(=O)CCCCC(=O)N(C#N)CC` belongs 38.7 to 40.1 °C; to `CC1(C)Oc2ccc(C#N)cc2[C@@H](NC2=C(C=O)C(=O)CC2)[C@@H]1O` (relative stereo), 255 to 258 °C; to `COc1cnc(CSc2nc3cc(OC(F)(F)C(F)F)ccc3[nH]2)cc1OC`, 125 to 127 °C. The molecule `Cn1cc(C#N)c(-c2ccco2)n1` came in with a melting point of 104 to 106 °C. The molecule `O=C(C=Cc1ccc(NC(=O)c2ccc3ccccc3c2)cc1)NO` displayed a melting point of 231 to 233 °C.

As to `COc1cc(COc2nn(-c3ccccc3)cc2C=O)ccc1OCc1nc(-c2ccccc2)sc1C`, the melting point is 164 to 165 °C. In turn, `C=Cc1cn(-c2c(Cl)cc(C(F)(F)F)cc2Cl)nn1` registered a melting point of 109 to 111 °C. `COc1ccc2c(c1)C(C(=O)N(Cc1ccc(-n3ccnc3)cc1)c1ccc(C(C)C)cc1)CCC2` (centres undefined) had a melting point of 111 °C.

Turning to `Cc1ccc(C(=O)N(C)C2CCCCC2)cc1`, the melting point was in the range of 70 to 71 °C. `COC(=O)c1cn2c3c(c(OS(C)(=O)=O)c(F)cc3c1=O)CCN2C` showed a melting point of 247 to 250 °C. The molecule `ClC1c2ccccc2CSc2ccccc21` (centres undefined) yielded a melting point of 79 to 82 °C. `CCOC(=O)C[C@@H]1c2ccccc2O[C@H]1c1ccccc1` (relative stereo) displayed a melting point of 42 to 43 °C. Regarding `CS(=O)(=O)N1CCC(NC(=O)Nc2cccc(F)c2)CC1`, the melting point is 212 to 214 °C. For the molecule `CNC(=O)CCC(=O)c1ccc(OCC2CO2)cc1` (centres undefined), the melting point lay within 133 to 140 °C. With `O=C(O)c1ccc(OC(F)(F)F)c(Cl)c1Cl`, the melting point was in the range of 123 to 126 °C.

The molecule `CCOC(=O)c1nc(NC)sc1-c1cn2ccc(C)cc2n1` displayed a melting point of 210 to 213 °C. `CC(C)N(NC(=O)c1ccc(Cl)c(Cl)c1)C(=O)c1ccccc1` had a melting point of 157 °C.

In the case of `O=C(NCCCl)NC(c1cccc(C(F)(F)F)c1)C(F)(F)F` (centres undefined), the melting point lay within 124 to 128 °C.

In turn, `COc1ccc(/C=C/c2nc3ccccc3n2-c2ccccn2)cc1` returned a melting point of 146 °C. Molecule `C[C@@H]1C(=O)C[C@H]2C[C@@H]1OO[C@@]2(C)/C=C\c1cccc(C(F)(F)F)c1` yielded a melting point of 101 °C. On to `NCCc1c(C(=O)O)[nH]c2ccc(Br)cc12`, for which the melting point lay in the range of 248 to 249 °C. Regarding `Cc1ccc([N+](=O)[O-])c(OC2CCOC2=O)c1` (centres undefined), the melting point was 68 to 70 °C.

The molecule `CC(=O)CCc1ccc(C(=O)c2ccc(F)cc2)cc1` came in with a melting point of 67 to 68 °C. To `Cc1cc(CO)nc(N2CCN(c3ccnc([C@@H](C)O)n3)CC2)n1` belongs 139 to 140 °C. To `Cc1ccc(OCc2ccccc2[N+](=O)[O-])c(C=O)c1` belongs 124 °C; to `ClCCCOc1ccc(/C=C/c2nc3ccccc3o2)cc1`, 82 to 83 °C. In turn, `CC(=O)CCc1ccc2c(c1)Cc1cc(O)ccc1-2` returned a melting point of 170 °C. `O=C1C(CSC(=O)c2ccccc2)=C(CSC(=O)c2ccccc2)C(=O)C(CSC(=O)c2ccccc2)=C1CSC(=O)c1ccccc1` had a melting point of 224 to 226 °C. The molecule `CCCCNS(=O)(=O)CC(O)C(O)C(CC1CCCCC1)NC(=O)[C@H](CC(C)C)NC(=O)C(Cc1ccccc1)CS(=O)(=O)C(C)(C)C` (some centres undefined) yielded a melting point of 87 to 101 °C. For `CCCCc1nc(C(=O)CC)c(C#N)[nH]1`, the melting point fell in the range of 84 to 85 °C.

The molecule `CCc1ccccc1CCC(=O)O` registered a melting point of 87 to 91 °C. `COC(=O)Nc1cc(C(C)(C)C)no1` gave a melting point of 86.5 to 87 °C. `NC(=O)C1=C(C(=O)Nc2cc(OC3CCCC3)c(Cl)cc2F)CCCC1` showed a melting point of 200 to 201 °C. As to `O=C(Nc1cc(Cl)ccc1N1CCCCC1)c1cnn2cc(O)cnc12`, the melting point was over 300 °C.
